Measurements from patent publication EP1081131A1 (priority 1998, dated 1999).

Columns and labels:
Assay type in all cases: cell-based, mycobacteria of tuberculosis
[1] = tested on: Strain resistant to streptomycin and rifamycin; details: taken from patients, Sverdlovsk Regional SRI of Phthisiopulmonology 1998
[2] = tested on: Strain resistant to isoniazid; details: taken from patients, Sverdlovsk Regional SRI of Phthisiopulmonology 1998
Resistant to rifamycin = experiment: Bacteriostatic activity on patient strains (Table 4); details: taken from patients, Central SRI of Tuberculosis RAMS 1997
Resistant to isoniazid = experiment: as above; details: taken from patients, Central SRI of Tuberculosis RAMS 1997
[3] = tested on: Resistant to streptomycin; experiment: as above; details: taken from patients, Central SRI of Tuberculosis RAMS 1997
[4] = tested on: Semiresistant (resistant to streptomycin, rifamycin and isoniazid); experiment: as above; details: taken from patients, Central SRI of Tuberculosis RAMS 1997

In the case of O=C(NN=Cc1c(OCCOc2ccc3ccccc3c2C=NNC(=O)c2ccccc2)ccc2ccccc12)c1ccccc1 [1,2-Bis[2(benzoyl hydrazonomethylnaphthoxy-2)]-ethane], the Inhibiting level [1] is reported as 0.4 µg/mL and the Inhibiting level [2] is reported as 5.0 µg/mL.
O=C(NN=Cc1ccccc1OCCCCOCCCCOc1ccccc1C=NNC(=O)c1cccnc1)c1cccnc1 [1,9-Bis(2-nicotinoyl hydrazonomethylphenoxy)-5-oxanonon] was tested, and the Inhibiting level [1] was 0.4 µg/mL and the Inhibiting level [2] was >5.0 µg/mL.
Compound CO[C@H]1/C=C/O[C@@]2(C)Oc3c(C)c(O)c4c(O)c(cc(O)c4c3C2=O)NC(=O)/C(C)=C\C=C\[C@H](C)[C@H](O)[C@@H](C)[C@@H](O)[C@@H](C)[C@H](OC(C)=O)[C@@H]1C [Rifamycin, reference compound] has an Inhibiting level [1] of 20.0 µg/mL.
In the case of [H]/N=C(/N)N[C@H]1[C@H](O)[C@@H](O)[C@H](O[C@@H]2O[C@@H](C)[C@](O)(C=O)[C@H]2O[C@@H]2O[C@@H](CO)[C@H](O)[C@@H](O)[C@@H]2NC)[C@@H](N/C(N)=N\[H])[C@@H]1O [Streptomycin, reference compound], the Inhibiting level [1] is reported as 10.0 µg/mL and the Inhibiting level [2] is reported as >50.0 µg/mL.
NNC(=O)c1ccncc1 [Isoniazid, hydrazide of isonicotinic acid, reference compound] was tested, and the Inhibiting level (Resistant to rifamycin) was 0.29 µg/mL, the Inhibiting level (Resistant to isoniazid) was >100 µg/mL and the Inhibiting level [1] was 0.1 µg/mL. It also gave an Inhibiting level [2] of 5.0 µg/mL, an Inhibiting level [3] of 0.29 µg/mL and an Inhibiting level [4] of 2.125 µg/mL.
O=C(NN=Cc1ccccc1OCCOCCOc1ccccc1C=NNC(=O)c1ccncc1)c1ccncc1 [1,5-Bis(2-isonicotinoyl hydrazonomethylphenoxy)-3-oxapentane] gave an Inhibiting level (Resistant to rifamycin) of 0.20 µg/mL, an Inhibiting level (Resistant to isoniazid) of 18.80 µg/mL and an Inhibiting level [3] of 1.56 µg/mL. It also gave an Inhibiting level [4] of 1.57 µg/mL.
COc1cc(C=NNC(=O)c2ccccc2)ccc1OCCOc1ccc(C=NNC(=O)c2ccccc2)cc1OC [1,2-Bis(2-methoxy-4-benzoyl hydrazonomethylphenoxy)-ethane] was tested, and the Inhibiting level [1] was 0.8 µg/mL and the Inhibiting level [2] was >5.0 µg/mL.
In the case of O=Cc1ccc(Cl)cc1OCCOc1cc(Cl)ccc1C=O [1,2-Bis(2-formyl-5-chlorphenoxy)-ethane], the Inhibiting level [1] is reported as 0.4 µg/mL and the Inhibiting level [2] is reported as 5.0 µg/mL.
